# Patent publication US20030013898A1, “Pericyte protective agent” (Toray Industries, Inc., priority 1998, published 2003)
# Tests used:
# [1] = system: Pericytes isolated from bovine retina; test: Pericyte protecting action: suppression of pericyte proliferation attributable to AGE; assay type: cell-based; details: FIG. 1
# Experimental: Pericytes were isolated from bovine retina and maintained in Dulbecco's modified Eagle medium containing 20% foetal calf serum. The suppression of pericyte proliferation attributable to AGE was measured by adding 0.25 mg of AGE-BSA (prepared in Reference Example 1) to a culture plate into which 3.0×10^4 cells had been plated, then culturing at 37° C. for 5 days and performing measurements using a Packard Cyto Life. Separately, Beraprost sodium (BPS) was added at a final concentration of 0.1-10 μM prior to AGE addition. As controls, measurements were carried out in the same way for the case when treatment was carried out with AGE-BSA only and for the case where no treatment was carried out. For each group, the tests were carried out 10 times respectively.
# RAGE mRNA = RAGE mRNA in pericytes by quantitative reverse transcription-polymerase chain reaction; assay type: cell-based, bovine; details: 1 μM BPS treatment
# Experimental: Pericytes were isolated from bovine retina and maintained in Dulbecco's modified Eagle medium containing 20% foetal calf serum. Next, the quantity of the AGE receptor RAGE mRNA present in the pericytes was analyzed by means of a quantitative reverse transcription-polymerase chain reaction method, in accordance with the technique described in Biochemical and Biophysical Research Communications, Vol. 213, 682-683, 1995.
structure (smiles),measurement,setting,value
"CC#CCC(C)[C@H](O)/C=C/[C@@H]1[C@H]2c3cccc(CCCC(=O)O)c3O[C@H]2C[C@H]1O (relative stereo) [BPS, (±)-(1R*,2R*,3aS*,8bS*)-2,3,3a,8b-tetrahydro-2-hydroxy-1-[(E)-(3S*)-3-hydroxy-4-methyl-1-octen-6-ynyl]-1H-cyclopenta[b]benzofuran-5-butyric acid]",improvement of AGE-induced suppression of pericyte proliferation,"[1]; BPS 0.1-10 μM added prior to 0.25 mg AGE-BSA, 3.0×10^4 cells, 37° C., 5 days",improved in a concentration-dependent manner
same,concentration at which improvement of suppression of proliferation was significant,"[1]; BPS added prior to AGE-BSA, 5 days culture",1 µM
same,expression of RAGE (mRNA),RAGE mRNA,expression of RAGE was suppressed
